Measured values from patent US4880939A, “2,5,6,7-tetranor-18,18,19,19-tetradehydro-4,8-inter-m-phenylene PGI2 derivatives” (Toray Industries, priority 1986, dated 1989).
≈ marks a conversion by molar mass, not a printed value. Like-named read-outs stand apart in the source and are kept apart here.

What was measured:
[1] = background; cited from earlier work
gastric acid secretion [2] = assay: Gastric acid secretion-inhibiting activity, pylorus ligation method (Shay); type: in vivo; details: injected into duodenum, pylorus ligated rats, five hours, five animals; for ED50, Acidity (gastric acid secretion-inhibiting activity) / ED50, Gastric juice volume (gastric acid secretion-inhibiting activity): 300 min; for ED50: Rattus norvegicus, 5 h
Description: Gastric acid secretion-inhibiting activity of the compounds of the present invention was investigated according to the pylorus ligation method described by Shay in Gastroenterology, 5, 43 (1945).
Under anesthesia by ether, the abdomen of a group of rats is incised at its median and the pylorus is ligated with a silk thread. Simultaneously, a compound to be tested is injected into the duodenum of the same rat. The abdomen is then closed. Five hours later, the abdomen is again incised and the esophagus is ligated. The whole stomach is then removed. The stomach is cut along the greater curvature and the contents of the stomach are transferred to a graduated centrifugal tube. After centrifugation at 3,000 rpm for 10 minutes, the volume of the gastric juice is measured. A portion of the supernatant is taken and titrated to pH 7 with 0.1N NaOH in a pH stat, Radio Meter Inc. An average dose amount of a compound to be tested in a group of five animals, by which either the volume of gastric juice (in ml) or the acidity (in mEq/ml) is reduced to 50% of the corresponding value of a control group, is designated as ED50.

platelet aggregation = assay: Platelet aggregation-inhibiting activity (ADP-induced, platelet-rich plasma); type: cell-based, person; details: PRP, ADP 10 μM, compound added one minute before ADP; for IC50: Platelet
Description: The blood taken from the cubital median vein of a person is centrifuged at 800 rpm for 10 minutes and the supernatant is used as platelet-rich plasma (PRP). The PRP is distributed into small test tubes, and adenosine diphosphate (ADP) is added at a final concentration of 10 μM thereinto to induce platelet aggregation. The size of the aggregation is determined in a platelet aggregation measuring apparatus (RiKa-Denki, Tokyo, Japan) by measuring the change in turbidity of a sample in the small test tube. A compound to be tested is added to the sample one minute before the addition of ADP. The concentration of the compound to be tested, by which the platelet aggregation is reduced to 50% of that observed in a control group, is designated as IC50.

[3] = test system: blood pressure in the carotid; assay: Hypotensive activity; type: in vivo, Wistar male rats; details: dose reducing blood pressure by 25 mmHg, injected via femoral artery, chloralose anesthesia; for ED (25 mmHg): Rattus norvegicus, read-out: ED25 (hypotensive activity)
Description: A catheter is inserted into and held in the carotid of a group of Wistar male rats under anesthesia by chloralose. Another end of the catheter is connected to a polygraph with a pressure transducer to measure the blood pressure in the carotid. A compound to be tested is injected via a catheter connected to the femoral artery. A dose amount of a compound to be tested, by which the blood pressure is reduced by 25 mmHg in the dose-response curve of the hypotensive compound, is designated as ED25.

[4] = test system: lesions appearing on the stomach corpus; assay: Gastric cytoprotection activity (method of A. Robert; 0.2N NaOH-induced stomach lesions); type: in vivo; details: dose reducing ulcer index to 50% of control, 30 minutes before 0.2N NaOH; for ED50 (gastric cytoprotection activity): oral; for ED50: po
Description: Gastric cytoprotection activity of the compounds of the present invention was investigated according to the method described by A. Robert in Gastroenterology, 77(3), 443 (1979).
A compound to be tested is orally administered to a group of animals and, 30 minutes later, 0.2N NaOH is orally applied to the animals. One hour later, the animals are sacrificed under anesthesia by chloroform and their stomachs are removed and fixed in 5% formalin solution. The stomach is then incised along the greater curvature. Lengths of lesions appearing on the stomach corpus are measured and summed. The total length is served as an ulcer index. A dose amount of a compound to be tested, by which the ulcer index is reduced to 50% of the index of a control group (100%), is designated as ED50.

gastric acid secretion [5] = assay: Gastric acid secretion-inhibiting activity, method of M. Ghosh and H. Schild (perfused stomach, pentagastrin stimulation); type: in vivo, male SD rats; details: ratio of index (area of pH time course) to that of PGE2; femoral vein injection; pentagastrin 0.05 μg/kg per minute
Text: The gastric acid secretion-inhibiting activity of the compounds of the present invention was also investigated according to the method described by M. Ghosh and H. Schild, Br. J. Pharmacol., 13, 54 (1958).
A group of male SD rats is incised in the abdomen under anesthesia by urethane. The lumen of the stomach is perfused with saline through a double tube cannula which has been inserted into the stomach through a lumen formed in the cardia. The pH of draining gastric acid is monitored by a pH meter. The secretion of gatric acid is stimulated by continuous infusion of pentagastrin at a rate of 0.05 μg/kg per minute. When the pH of the gastric acid becomes stable at about 4.0, a compound to be tested is injected through the femoral vein. An index for the gastric acid secretion-inhibiting activity of a compound to be tested is calculated from the area surrounded by a curve drawn by the time course of the pH of the gastric acid, from the time point when an initial increase of the pH is observed due to the gastric acid secretion-inhibition by the compound injected to the time point when the pH comes back to the baseline. The index thus obtained is compared to that of PGE2 and the ratio of the index to that of PGE2 is calculated.

[6] = background; cited from earlier work; remark: listed apart in the source
[7] = unstable exo-enol structure; converted into 6-oxo PGF1α; cited from earlier work
[8] = test system: platelet aggregation, gastric acid secretion, peripheral blood vessel; details: background; cited from earlier work
[9] = acidity reduced to 50% of control
[10] = gastric juice volume reduced to 50% of control
[11] = acidity reduced to 50% of control, read-out: ED50, Acidity (gastric acid secretion-inhibiting activity)
[12] = gastric juice volume reduced to 50% of control, read-out: ED50, Gastric juice volume (gastric acid secretion-inhibiting activity)

Row | SMILES | IC50 (platelet aggregation) [ng/mL] | Relative activity (PGE2 = 1), gastric acid secretion-inhibiting activity (gastric acid secretion [5]) | ED50 (gastric acid secretion [2]; [11]) [µg/kg] | ED50 (gastric acid secretion [2]; [12]) [µg/kg] | ED (25 mmHg) [3] [µg/kg] | ED50 [4] [µg/kg] | further results
1 | CCCCC[C@H](O)/C=C/[C@@H]1[C@@H](CC(=O)CCCCC(=O)O)[C@@H](O)C[C@H]1O [6-oxo PGF1α] |  |  |  |  |  |  | physiological activity [1]: substantially inactive physiologically
2 | CC#CCC(C)C(O)C=CC1C(O)CC2Oc3c(CCC(=O)O)cccc3C21 [Compound 38, 16(R)-Methyl-2,5,6,7-tetranor-18,18,19,19-tetradehydro-4,8-inter-m-phenylene PGI2] |  |  |  |  |  |  | ED50, Acidity (gastric acid secretion-inhibiting activity) (gastric acid secretion [2]; [9]): 490 µg/kg; ED50, Gastric juice volume (gastric acid secretion-inhibiting activity) (gastric acid secretion [2]; [10]): > 1000 µg/kg; IC50 (platelet aggregation-inhibiting activity) (platelet aggregation): 6.5 ng/mL (≈ 16.9 nM); ED25 (hypotensive activity) [3]: 0.57 µg/kg; ED50 (gastric cytoprotection activity) [4]: 24.1 µg/kg
3 | CC#CCC(C)C(O)C=CC1C(O)CC2Oc3c(CCC(=O)O)cccc3C21 [Compound 39, 16(S)-methyl-2,5,6,7-tetranor-18,18,19,19-tetradehydro-4,8-inter-m-phenylene PGI2] |  |  |  |  |  |  | ED50, Acidity (gastric acid secretion-inhibiting activity) (gastric acid secretion [2]; [9]): 9.5 µg/kg; ED50, Gastric juice volume (gastric acid secretion-inhibiting activity) (gastric acid secretion [2]; [10]): 25 µg/kg; IC50 (platelet aggregation-inhibiting activity) (platelet aggregation): 0.42 ng/mL (≈ 1.09 nM); ED25 (hypotensive activity) [3]: 0.07 µg/kg; ED50 (gastric cytoprotection activity) [4]: 0.38 µg/kg
4 | CC#CCC(C)(C)C(O)C=CC1C(O)CC2Oc3c(CCC(=O)O)cccc3C21 (stereo not shown) [Compound 54, 16,16-Dimethyl-2,5,6,7-tetranor-18,18,19,19-tetradehydro-4,8-inter-m-phenylene PGI2] | 7.3 (≈ 18.3 nM) | 16 | 230 | > 300 | 0.64 | 2.8 | 
5 | CCC#CCC(C)(C)C(O)C=CC1C(O)CC2Oc3c(CCC(=O)O)cccc3C21 (stereo not shown) [Compound 57, 16,16-Dimethyl-20a-homo-2,5,6,7-tetranor-18,18,19,19-tetradehydro-4,8-inter-m-phenylene PGI2] | 3.2 (≈ 7.76 nM) | 5.3 | 87 | 210 | 0.14 | 1.14 | 
6 | CCCCC#CCC(C)(C)C(O)C=CC1C(O)CC2Oc3c(CCC(=O)O)cccc3C21 (stereo not shown) [Compound 60, 16,16-Dimethyl-20a,20b,20c-trihomo-2,5,6,7-tetranor-18,18,19,19-tetradehydro-4,8-inter-m-phenylene PGI2] | 3 (≈ 6.81 nM) | 0.5 | > 3000 | > 3000 |  |  | 
7 | CCCCCC#CCC(C)(C)C(O)C=CC1C(O)CC2Oc3c(CCC(=O)O)cccc3C21 (stereo not shown) [Compound 64, 16,16-dimethyl-20a,20b,20c,20d-tetrahomo-2,5,6,7-tetranor-18,18,19,19-tetradehydro-4,8-inter-m-phenylene PGI2] | 5.5 (≈ 12.1 nM) | 0.25 | > 10000 | 5600 | 15.5 | 27.7 | 
8 | CC#CCC(C)(C)C(O)C=CC1C(O)CC2Oc3c(CCCO)cccc3C21 (stereo not shown) [Compound 69, 3-Decarboxy-3-hydroxymethyl-16,16-dimethyl-2,5,6,7-tetranor-18,18,19,19-tetradehydro-4,8-inter-m-phenylene PGI2] |  | 2.7 | 270 | > 3000 | > 100 | 0.82 | 
9 | CCCCC[C@H](O)/C=C/[C@H]1[C@H](O)CC(=O)[C@@H]1C/C=C\CCCC(=O)O [PGE2, reference compound] |  | 1 |  |  |  |  | 
10 | CCCCC[C@H](O)/C=C/[C@@H]1[C@H]2C/C(=C/CCCC(=O)O)O[C@H]2C[C@H]1O [PGI2, Prostaglandin I2] |  |  |  |  |  |  | duration of physiological activities in vivo [6]: only short duration; stability in vivo [6]: unstable in vivo; stability in neutral aqueous solutions [7]: extremely unstable; gastric acid secretion-inhibiting activity [8]: potent; peripheral blood vessel-dilating activity [8]: potent; platelet aggregation-inhibiting activity [8]: potent

Now from value to molecule, other results behind:

Row | IC50 (platelet aggregation) [ng/mL] | SMILES | Relative activity (PGE2 = 1), gastric acid secretion-inhibiting activity (gastric acid secretion [5]) | ED50 (gastric acid secretion [2]; [11]) [µg/kg] | ED50 (gastric acid secretion [2]; [12]) [µg/kg] | ED (25 mmHg) [3] [µg/kg] | ED50 [4] [µg/kg] | further results
11 | 0.34 (≈ 0.853 nM) | CCC#CCC(C)C(O)C=CC1C(O)CC2Oc3c(CCC(=O)O)cccc3C21 (stereo not shown) [Compound 42, 16-Methyl-20a-homo-2,5,6,7-tetranor-18,18,19,19-tetradehydro-4,8-inter-m-phenylene PGI2] | 26 | 23 | 18 |  |  | 
12 | 0.96 (≈ 2.33 nM) | CCCC#CCC(C)C(O)C=CC1C(O)CC2Oc3c(CCC(=O)O)cccc3C21 (stereo not shown) [Compound 46, 16-Methyl-20a,20b-dihomo-2,5,6,7-tetranor-18,18,19,19-tetradehydro-4,8-inter-m phenylene PGI2] |  | 140 | 120 | 0.22 | 2.33 | 
13 | 0.63 (≈ 1.48 nM) | CCCCC#CCC(C)C(O)C=CC1C(O)CC2Oc3c(CCC(=O)O)cccc3C21 (stereo not shown) [Compound 50, 16-Methyl-20a,20b,20c-trihomo-2,5,6,7-tetranor-18,18,19,19-tetradehydro-4,8-inter-m-phenylene PGI2] |  | 740 | 510 |  | 3.74 | 
